According to patent publication US10000476B2, “Pyridone derivative, pharmaceutical containing the same and methods of use thereof” (KAKEN PHARMACEUTICAL CO., LTD., priority 2011, dated 2018):
pIC50: −log10 of the molar value.

Assays:
[1] = target: human MMP-1 (Homo sapiens (Human), UniProt P03956); assay: MMP-1 inhibition test; format: biochemical; conditions: read-out: MMPs IC50 MMP-1
Description: (§1) MMP inhibition tests can be carried out, for example, using a fluorescent synthetic substrate based on the methods described in Bickett et al. (D. Mark Bickett et al., Anal. Biochem., 1993, 212, 58-64) and Nagase et al. (H. Nagase et al., J. Biol. Chem., 1994, 269, 20952-20957). The method for each MMP inhibition test is shown below.
180 μL (100 ng) of human MMP-1 (Calbiochem #444208) was mixed with 20 μL of 10 mM p-amino phenyl mercuric acetate (APMA), and activated by reacting at 37° C. for 1 hour. 20 μL of the resultant enzyme solution was diluted to 90 μL with an assay buffer A. The mixture was added to 90 μL of a 20 μM fluorescent substrate (Dnp-Pro-Cha(β-cyclohexylalanyl)-Gly-Cys(Me)-His-Ala-Lys(Nma)-NH2) (SEQ ID NO: 2) prepared with an assay buffer B, and reacted at 37° C. for 5 hours. Enzyme activity was then determined by measuring with a fluorescence intensity meter (Labsystems, Fluoroskan Ascent) at an excitation wavelength of 355 nm and a measurement wavelength of 460 nm.
(§2) From the enzyme activity in the presence or the absence of the test substance, the inhibition rate was determined, and the 50% inhibitiory concentration (IC50) of the test substance was calculated.

[2] = target: human MMP-3 (Homo sapiens (Human), UniProt P08254); assay: MMP-3 inhibition test; format: biochemical; conditions: read-out: MMPs IC50 MMP-3
Chain of human MMP-3 (P08254 100-272): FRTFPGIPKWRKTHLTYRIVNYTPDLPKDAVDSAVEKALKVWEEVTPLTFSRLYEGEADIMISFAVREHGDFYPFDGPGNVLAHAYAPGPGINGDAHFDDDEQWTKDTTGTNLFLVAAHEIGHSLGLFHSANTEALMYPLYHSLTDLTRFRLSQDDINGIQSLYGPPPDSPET
Description: as §1
90 μL (1.5 ng) of human MMP-3 (Calbiochem #444217) prepared with an assay buffer A was added to 90 μL of a 20 μM fluorescent substrate NFF-3 (MOCAc((7-methoxycoumarin-4-yl)acetyl)-Arg-Pro-Lys-Pro-Val-Glu-Nva-Trp-Arg-Lys(Dnp)-NH2, Peptide Institute Inc., #3168-v) (SEQ ID NO: 4) prepared with an assay buffer B, and reacted at 37° C. for 4 hours. Enzyme activity was then determined by measuring with a fluorescence intensity meter (Labsystems, Fluoroskan Ascent) at an excitation wavelength of 320 nm and a measurement wavelength of 405 nm.
as §2

[3] = target: human MMP-8 (Homo sapiens (Human), UniProt P22894); assay: MMP-8 inhibition test; format: biochemical; conditions: read-out: MMPs IC50 MMP-8
Chain of human MMP-8 (P22894 101-467): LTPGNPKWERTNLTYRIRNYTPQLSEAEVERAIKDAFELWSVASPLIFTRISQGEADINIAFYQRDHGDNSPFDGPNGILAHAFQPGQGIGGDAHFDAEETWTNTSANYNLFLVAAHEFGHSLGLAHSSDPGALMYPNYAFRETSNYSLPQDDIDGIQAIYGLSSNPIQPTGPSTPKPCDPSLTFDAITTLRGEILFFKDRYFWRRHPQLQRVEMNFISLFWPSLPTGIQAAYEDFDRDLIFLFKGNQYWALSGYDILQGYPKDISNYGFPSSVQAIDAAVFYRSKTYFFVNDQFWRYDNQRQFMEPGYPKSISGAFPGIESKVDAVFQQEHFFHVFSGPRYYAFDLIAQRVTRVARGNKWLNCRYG
Description: as §1
90 μL (29 ng) of human MMP-8 (Calbiochem #444229) was mixed with 10 μL of 10 mM APMA, and activated by reacting at 37° C. for 1 hour. 10 μL of the resultant enzyme solution was diluted to 90 μL with an assay buffer A. The mixture was added to 90 μL of a 20 μM fluorescent substrate (MOCAc-Pro-Leu-Gly-Leu-A2pr(Dnp)-Ala-Arg-NH2, Peptide Institute Inc., #3163-v) (SEQ ID NO: 3) prepared with an assay buffer B, and reacted at 37° C. for 5 hours. Enzyme activity was then determined by measuring with a fluorescence intensity meter (Labsystems, Fluoroskan Ascent) at an excitation wavelength of 320 nm and a measurement wavelength of 405 nm.
as §2

[4] = target: human MMP-17 (Homo sapiens, UniProt Q9ULZ9); assay: MMP-17 inhibition test; format: biochemical; conditions: read-out: MMPs IC50 MMP-17
Chain of human MMP-17 (Q9ULZ9 126-565 limits assumed): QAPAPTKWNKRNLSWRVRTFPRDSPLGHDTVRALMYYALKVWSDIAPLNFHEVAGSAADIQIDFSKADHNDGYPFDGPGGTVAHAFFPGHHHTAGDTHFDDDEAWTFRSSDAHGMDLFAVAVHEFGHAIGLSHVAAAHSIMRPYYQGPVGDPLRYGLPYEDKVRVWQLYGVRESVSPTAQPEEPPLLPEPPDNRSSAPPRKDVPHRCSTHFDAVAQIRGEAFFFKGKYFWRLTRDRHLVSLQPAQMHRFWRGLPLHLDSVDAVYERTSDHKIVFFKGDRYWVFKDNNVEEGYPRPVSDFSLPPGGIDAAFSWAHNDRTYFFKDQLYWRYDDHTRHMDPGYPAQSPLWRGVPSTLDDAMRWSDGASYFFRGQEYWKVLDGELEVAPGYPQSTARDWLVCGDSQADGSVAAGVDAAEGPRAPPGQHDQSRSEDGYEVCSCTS
Description: as §1
90 μL (5.8 ng) of human MMP-17 (Calbiochem #475940) prepared with an assay buffer A was added to 90 μL of a 20 μM fluorescent substrate (MOCAc-Pro-Leu-Gly-Leu-A2pr(Dnp)-Ala-Arg-NH2, Peptide Institute Inc., #3163-v) (SEQ ID NO: 3) prepared with an assay buffer B, and reacted at room temperature for 5 hours. Enzyme activity was then determined by measuring with a fluorescence intensity meter (Labsystems, Fluoroskan Ascent) at an excitation wavelength of 320 nm and a measurement wavelength of 405 nm.
as §2

[5] = system: auricular oedema induced by TPA in BALB/c mice; assay: Inhibition test of auricular oedema induced by single application of TPA in mouse; format: in vivo; conditions: 1 w/v % solution applied topically to ear 1 hour before TPA, auricle thickness 6 hours after TPA, read-out: Auricular oedema inhibition rate (%)
Description: Inhibition Test of Auricular Oedema Induced by Single Application of TPA (12-O-tetradecanoylphorbol-13-acetate) in Mouse (In Vivo Efficacy Test Based on TNF-α-Related Cutaneous Inflammation)
Auricular oedema was induced by applying 54 μmol/L TPA-acetone solution on both the inner and outer sides of the left ear of BALB/c mice (application volume of 54 μmol/L TPA-acetone solution is 10 μL for each side of the left ear (i.e. 1.08 nmol TPA/auricle)). For a non-induced group, acetone was similarly applied instead of the 54 μmol/L TPA-acetone solution. The test substance was dissolved and prepared in a 1 w/v % solution of acetone containing 10 vol % DMSO (topical administration vehicle), then the test solution was applied onto both the inner and outer sides of the left ear of the mice (application volume of this test solution is 10 μL for each side of the left ear) 1 hour before the TPA application. For a control group, the topical administration vehicle was similarly applied instead of the test substance solution. For an etanercept group, 0.2 mL of a 5 mg/mL etanercept solution was intravenously administered (1 mg/mouse) the day before TPA application and 1.5 hours before TPA application. For a human IgG (hIgG) group (etanercept control group), 0.2 mL of a 5 mg/mL hIgG solution was intravenously administered (1 mg/mouse). Auricle thickness was measured under ether anesthesia the day before TPA application and 6 hours after TPA application for evaluation of the auricular oedema inhibition effect of the test substance based on the increase in auricle thickness as an index.
The auricular oedema inhibition rate (%) of the test substance was calculated based on the following formula using (A) the average value of the increase in auricular thickness of the group administered with the test substance, (B) the average value of the increase in auricular thickness of the non-induced group, and (C) the average value of the increase in auricular thickness of the control group. […]

Chain of human MMP-1 (P03956 100-469): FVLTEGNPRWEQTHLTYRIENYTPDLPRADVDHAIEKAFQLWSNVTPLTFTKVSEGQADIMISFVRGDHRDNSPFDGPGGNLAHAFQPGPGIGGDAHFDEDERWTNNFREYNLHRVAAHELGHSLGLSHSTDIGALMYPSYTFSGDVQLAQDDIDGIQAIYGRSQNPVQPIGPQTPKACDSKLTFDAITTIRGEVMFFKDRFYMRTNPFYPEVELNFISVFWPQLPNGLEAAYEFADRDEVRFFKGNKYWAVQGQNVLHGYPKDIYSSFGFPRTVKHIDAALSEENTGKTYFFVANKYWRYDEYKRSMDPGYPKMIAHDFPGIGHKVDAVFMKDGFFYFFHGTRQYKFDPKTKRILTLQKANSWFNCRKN

SMILES | pIC50 [1] | pIC50 [2] | pIC50 [3] | pIC50 [4] | inhibition in vivo at 10000 µg/mL [5] [%]
Cc1cccn(CC2(c3ccccc3)NC(=O)NC2=O)c1=O (stereo not shown) [Compound I-1, 5-[(3-methyl-2-oxopyridin-1(2H)-yl)methyl]-5-phenyl-imidazolidine-2,4-dione] | < 4.00 | < 4.00 | 4.68 | < 4.00 | –
Cc1cccn(CC2(c3cccc(-c4cccnc4)c3)NC(=O)NC2=O)c1=O (stereo not shown) [Compound I-62] | < 4.00 | 4.41 | 5.30 | 4.35 | 47
Cc1cccn(CC2(c3ccc(Oc4ccccc4)cc3)NC(=O)NC2=O)c1=O (stereo not shown) [Compound I-9, 5-[(3-methyl-2-oxopyridin-1(2H)-yl)methyl]-5-(4-phenoxyphenyl)imidazolidine-2,4-dione] | < 4.00 | 4.13 | 4.85 | 4.68 | 66
Cc1cccn(CC2(c3ccc(Cc4ccccc4)cc3)NC(=O)NC2=O)c1=O (stereo not shown) [Compound I-40, 5-(4-benzylphenyl)-5-[(3-methyl-2-oxopyridin-1(2H)-yl)methyl]imidazolidine-2,4-dione] | < 4.00 | < 4.00 | 4.80 | 4.52 | 63
Cc1cccn(CC2(c3ccc(Oc4ccccc4F)cc3)NC(=O)NC2=O)c1=O (stereo not shown) [Compound I-86] | < 4.00 | < 4.00 | 4.74 | 4.57 | 68
Cc1cccn(CC2(c3ccc(OCc4ccccc4)cc3)NC(=O)NC2=O)c1=O (stereo not shown) [Compound I-64] | < 4.00 | < 4.00 | 5.21 | < 4.00 | 50

Further lines, with some results ahead:

pIC50 [1] | pIC50 [2] | pIC50 [3] | pIC50 [4] | SMILES | inhibition in vivo at 10000 µg/mL [5] [%]
< 4.00 | 4.31 | 4.80 | 4.24 | COc1ccc(Cl)cc1C1(Cn2cccc(C)c2=O)NC(=O)NC1=O (stereo not shown) [Compound I-27, 5-(5-chloro-2-methoxyphenyl)-5-[(3-methyl-2-oxopyridin-1(2H)-yl)methyl]imidazolidine-2,4-dione] | –
< 4.00 | < 4.00 | 4.72 | < 4.00 | Cc1cccn(CC2(c3ccc(F)c(F)c3)NC(=O)NC2=O)c1=O (stereo not shown) [Compound I-10, 5-(3,4-difluorophenyl)-5-[(3-methyl-2-oxopyridin-1(2H)-yl)methyl] imidazolidine-2,4-dione] | 46
4.03 | < 4.00 | < 5.00 | 4.80 | Cc1cccn(CC2(c3ccc(Cc4ccc(F)cc4)cc3)NC(=O)NC2=O)c1=O (stereo not shown) [Compound I-41, 5-[4-(4-fluorobenzyl)phenyl]-5-[(3-methyl-2-oxopyridin-1(2H)-yl)methyl] imidazolidine-2,4-dione] | 51
